“And” between values parts separate entries of the source, which are not always exact repeats. Identical values can stand only once.
Experiments:
human CD4 T cells = assay: Human CD4 T cell proliferation assay (CFSE dilution, viability dye); assay type: cell-based; details: 96 h
Excerpt: Whole blood from de-identified healthy donors, from whom informed consent was obtained, was obtained from the Institute for Clinical and Translational Science (ICTS) research Blood Donor Program at the University of California, Irvine approved and reviewed by the Institutional Review Boards of UCI (IRB protocol HS #2001-2058). All ethical regulations relevant to human research participants were followed. Peripheral blood mononuclear cells (PBMC) were isolated by density gradient separation using lymphocyte separation media (Corning, Cat# 25-072-CV) and SepMate tubes (STEMCELL Technologies, Cat# 85450). Blood was first diluted (1:3) in phosphate-buffered saline (PBS) containing 2% fetal bovine serum (FPS), then overlaid on top of lymphocyte separation media (2:1). CD4+ T cells were isolated from PBMCs using magnetic separation (EasySep Human CD4+ T cell isolation kit, STEMCELL Technologies, Cat# 17952), post isolation purity is typically >95% based on CD4 and CD3 staining. Purified CD4^+ T cells were labeled with 1.6 µM of CellTrace CFSE in AIM V Serum-Free Medium (Gibco Cat# 12055-083) for 8 min[84]. CFSE labeled CD4 T cells were stimulated with anti-CD3- and anti-CD28-coated Dynabeads (Thermo Fisher Scientific, Cat# 111310) at 1:1 ratio in a round-bottom 96-well plate at 37 °C and 5% CO2 in the dark for 96 h in T cell culture medium (RPMI with 10% FCS, L-glutamine, non-essential amino acids, sodium pyruvate, β-mercaptoethanol and penn–strep with amphotericin B). On day 4 cells were stained with Fixable Viability Dye eFluor 780 (FVD-780, Thermo Fisher Scientific, Cat# 65-0865-14) in PBS for 20 min at 4 °C to identify dead cells. Cells were then washed with 1× PBS + 1% FBS twice and transferred to a round-bottom 96-deep well plate (Greiner, Cat# 07-000-119) for flow cytometry. Fluorescence intensity data were acquired using NovoCyte Quanteon (Agilent Technologies) flow cytometer. FSC files were used for gating and analysis using FlowJo analysis software (FlowJo LLC, Ashland, OR). […]

TREK-1 (KCNK2) = target: T1, TREK-1 (KCNK2) (Homo sapiens, UniProt O95069); assay: TEVC electrophysiology, Xenopus oocytes expressing TREK-1; assay type: cell-based
T1 sequence (O95069 1-426): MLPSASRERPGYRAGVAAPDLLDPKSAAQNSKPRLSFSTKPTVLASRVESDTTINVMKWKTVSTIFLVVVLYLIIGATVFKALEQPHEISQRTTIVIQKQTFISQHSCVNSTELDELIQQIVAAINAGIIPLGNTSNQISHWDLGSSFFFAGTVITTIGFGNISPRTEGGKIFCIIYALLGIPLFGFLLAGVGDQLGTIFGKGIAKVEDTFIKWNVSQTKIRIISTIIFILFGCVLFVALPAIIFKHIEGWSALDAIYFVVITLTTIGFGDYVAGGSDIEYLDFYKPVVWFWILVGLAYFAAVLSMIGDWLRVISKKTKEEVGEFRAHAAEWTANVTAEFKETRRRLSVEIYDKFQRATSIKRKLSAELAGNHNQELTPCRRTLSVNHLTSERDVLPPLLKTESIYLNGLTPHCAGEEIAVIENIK
Protocol: We generated human potassium channel cRNA transcripts with the mMessage mMachine kit (Thermo Fisher Scientific, Waltham, MA, USA) according to manufacturer’s instructions, after vector linearization, from cDNA sub-cloned into expression vectors (pTLNx, pXOOM and pMAX). We injected Xenopus laevis oocytes (Xenoocyte, Dexter, MI, USA) with the channel cRNAs (0.5–10 ng) and incubated the oocytes at 16 °C for 1–4 days prior to electrophysiological recording.
We performed TEVC at 20–23 °C with an OC-725C amplifier (Warner Instruments, Hamden, CT, USA) and pClamp10 software. Chemicals for recording and oocyte storage solutions were from Sigma-Aldrich (St. Louis, MO). Bath solution contained (in mM): 96 NaCl, 4 KCl, 1 MgCl2, 1 CaCl2, 10 HEPES (pH 7.6). Pipettes were 1–2 MΩ resistance when filled with 3 M KCl. We recorded currents in response to voltage pulses between −120 mV or −80 mV and +40 mV at 10 mV intervals from a holding potential of −80 mV, to yield current–voltage relationships and examine activation kinetics. We recorded and analyzed data using Clampfit (Molecular Devices, Sunnyvale, CA, USA) and Graphpad Prism software (GraphPad, San Diego, CA, USA), stating values as mean ± SEM. We calculated the voltage dependence of activation (V0.5) by measuring tail currents at a voltage pulse of −30 mV (Kv7) or −50 mV (Kv1), then fitted the tail current/voltage relationship with a single Boltzmann function:1 g=(A1−A2)/{1+exp[V1/2−V/Vs]}y+A2 where g is the normalized tail conductance, A1 is the initial value at −∞, A2 is the final value at +∞, V1/2 is the half-maximal voltage of activation and Vs the slope factor. We fitted activation and deactivation kinetics with single exponential functions.

Kv1.1 = Kv1.1 (Homo sapiens, UniProt Q09470); parameters: method as in PMID 33093824; details: cited from earlier work
Chain of Kv1.1 (Q09470 whole entry): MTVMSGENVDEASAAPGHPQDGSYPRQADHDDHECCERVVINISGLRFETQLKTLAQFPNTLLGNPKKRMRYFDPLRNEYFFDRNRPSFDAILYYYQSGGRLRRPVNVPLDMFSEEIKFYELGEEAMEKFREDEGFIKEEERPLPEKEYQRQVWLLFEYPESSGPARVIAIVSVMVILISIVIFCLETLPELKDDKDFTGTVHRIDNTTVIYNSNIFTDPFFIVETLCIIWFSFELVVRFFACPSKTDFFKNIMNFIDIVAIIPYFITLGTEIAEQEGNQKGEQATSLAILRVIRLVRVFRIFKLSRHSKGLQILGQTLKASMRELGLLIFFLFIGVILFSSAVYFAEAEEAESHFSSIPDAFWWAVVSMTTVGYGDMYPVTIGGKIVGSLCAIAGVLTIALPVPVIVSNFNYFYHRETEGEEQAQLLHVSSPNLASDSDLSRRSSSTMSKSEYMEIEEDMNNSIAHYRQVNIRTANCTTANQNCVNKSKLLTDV

tannic acid
LD50 (viability dose–response) (human CD4 T cells; mean of 9 donors): 87 µM
IC50 for limiting T cell proliferation (division index) (human CD4 T cells; CD3/CD28 Dynabead stimulation, 10% FCS): 35 µM and 35.03 µM
cell viability (human CD4 T cells; at 50 µM): 76.96 ± 8.922%
Current at 0 (mV) (TREK-1 (KCNK2); 10 µM tannic acid, control 0.23 ± 0.03): 0.44 ± 0.08
Current at 0 (mV) (TREK-1 (KCNK2); 50 µM tannic acid): 0.89 ± 0.11
Current at 0 (mV) (TREK-1 (KCNK2); 100 µM tannic acid): 1.37 ± 0.14
Current at 0 (mV) (TREK-1 (KCNK2); 250 µM tannic acid): 1.86 ± 0.19
Current at 0 (mV) (TREK-1 (KCNK2); 500 µM tannic acid): 2.22 ± 0.24
increase in KCNK2 current (TREK-1 (KCNK2); at 500 µM, 0 mV): > 10 fold
EC50 (TREK-1 (KCNK2); current fold increase at 0 mV, read-out: EC50 for KCNK2 (TREK-1) activation): 143 ± 4 µM
effect on voltage dependence of Kv1.1 (Kv1.1): negative-shift
